Tested on: HCT 116 cells transfected with a luciferase reporter under the control of an HIF-responsive sequence
Experiment: HIF-luciferase assay
Format: cell-based
Settings: Homo sapiens; HCT 116 HIF-luciferase reporter cells, hypoxia chamber (1% O2), 24 h; in some cases means of up to four individual determinations
Procedure: HCT 116 cells were transfected in a stable manner with a plasmid which contained a luciferase reporter under the control of an HIF-responsive sequence. These cells were sown in microtitre plates [20 000 cells/cavity in RPMI 1640 medium with 10% foetal calf serum (FCS) and 100 μg/ml of hygromycin]. Incubation was carried out overnight under standard conditions (5% CO2, 21% O2, 37° C., moistened). The following morning the cells were incubated with various concentrations of the test substances (0-10 μmol/l) in a hypoxia chamber (1% O2). After 24 h, Bright Glo reagent (Promega, Wisconsin, USA) was added in accordance with the manufacturer's instructions, and after 5 min the luminescence was measured. Cells which were incubated under normoxia served as background controls.
The IC50 values from this assay for representative working examples are listed in the following table (in same cases as means of up to four individual determinations): […]

SMILES | IC50 [nM]
Cc1ccc(Cn2nc(/C(F)=C/c3ccc(OC(F)(F)F)cc3)cc2C)cc1 [Example 2, 3-{(Z)-1-Fluoro-2-[4-(trifluoromethoxy)phenyl]vinyl}-5-methyl-1-(4-methylbenzyl)-1H-pyrazole] | 30
Cc1cc(/C(F)=C/c2ccc(C(C)(C)C(F)(F)F)cc2)nn1Cc1cccc(Br)c1 [Example 7, 1-(3-Bromobenzyl)-3-{(Z)-1-fluoro-2-[4-(1,1,1-trifluoro-2-methylpropan-2-yl)phenyl]vinyl}-5-methyl-1H-pyrazole] | 40
Cc1cc(/C(F)=C/c2ccc(OC(F)(F)F)cc2)nn1Cc1cccc(N2CC(O)C2)c1 [Example 15, 1-{3-[(3-{(Z)-1-Fluoro-2-[4-(trifluoromethoxy)phenyl]vinyl}-5-methyl-1H-pyrazol-1-yl)methyl]phenyl}azetidin-3-ol] | 2
COC(=O)c1cccc(Cn2nc(/C(F)=C/c3ccc(OC(F)(F)F)cc3)cc2C)c1 [Example 18, Methyl 3-[(3-{(Z)-1-fluoro-2-[4-(trifluoromethoxy)phenyl]vinyl}-5-methyl-1H-pyrazol-1-yl)methyl]benzoate] | 20
COC(=O)c1cccc(Cn2nc(/C(F)=C/c3ccc([Si](C)(C)C)cc3)cc2C)c1 [Example 23, Methyl 3-[(3-{(Z)-1-fluoro-2-[4-(trimethylsilyl)phenyl]vinyl}-5-methyl-1H-pyrazol-1-yl)methyl]benzoate] | 1
Cc1cc(/C(F)=C/c2ccc(OC(F)(F)F)cc2)nn1Cc1cccc(C(=O)N(C)C)c1 [Example 25, 3-[(3-{(Z)-1-Fluoro-2-[4-(trifluoromethoxy)phenyl]vinyl}-5-methyl-1H-pyrazol-1-yl)methyl]-N,N-dimethylbenzamide] | 6
Cc1cc(/C(F)=C/c2ccc(SC(F)(F)F)cc2)nn1Cc1cccc(C(=O)N2CCCC2)c1 [Example 27, [3-({3-[(Z)-1-Fluoro-2-{4-[(trifluoromethyl)sulphanyl]phenyl}vinyl]-5-methyl-1H-pyrazol-1-yl}methyl)phenyl](pyrrolidin-1-yl)methanone] | 4
Cc1cc(/C(F)=C/c2ccc(C(C)(C)C(F)(F)F)cc2)nn1Cc1cccc(C(=O)N2CCCC2)c1 [Example 28, {3-[(3-{(Z)-1-Fluoro-2-[4-(1,1,1-trifluoro-2-methylpropan-2-yl)phenyl]vinyl}-5-methyl-1H-pyrazol-1-yl)methyl]phenyl}(pyrrolidin-1-yl)methanone] | 5
Cc1cc(/C(F)=C/c2ccc(C3(C(F)(F)F)CC3)cc2)nn1Cc1cccc(C(=O)N2CCCC2)c1 [Example 29, [3-({3-[(Z)-1-Fluoro-2-{4-[1-(trifluoromethyl)cyclopropyl]phenyl}vinyl]-5-methyl-1H-pyrazol-1-yl}methyl)phenyl](pyrrolidin-1-yl)methanone] | 5
Cc1cc(/C(F)=C/c2ccc(C(F)(F)F)cc2)nn1Cc1cccc(C(=O)N2CCCC2)c1 [Example 30, {3-[(3-{(Z)-1-Fluoro-2-[4-(trifluoromethyl)phenyl]vinyl}-5-methyl-1H-pyrazol-1-yl)methyl]-phenyl}(pyrrolidin-1-yl)methanone] | 6
Cc1cc(/C(F)=C/c2ccc(OC(F)(F)F)cc2)nn1Cc1cccc(C(=O)N2CCOCC2)c1 [Example 31, {3-[(3-{(Z)-1-Fluoro-2-[4-(trifluoromethoxy)phenyl]vinyl}-5-methyl-1H-pyrazol-1-yl)methyl]-phenyl}(morpholin-4-yl)methanone] | 3
Cc1cc(/C(F)=C/c2ccc(OC(F)(F)F)cc2)nn1Cc1cccc(C(=O)N2CCC(O)CC2)c1 [Example 32, {3-[(3-{(Z)-1-Fluoro-2-[4-(trifluoromethoxy)phenyl]vinyl}-5-methyl-1H-pyrazol-1-yl)-methyl]phenyl}(4-hydroxypiperidin-1-yl)methanone] | 4
Cc1cc(/C(F)=C/c2ccc(SC(F)(F)F)cc2)nn1Cc1cccc(C(=O)N2CCC(O)CC2)c1 [Example 33, [3-({3-[(Z)-1-Fluoro-2-{4-[(trifluoromethyl)sulphanyl]phenyl}vinyl]-5-methyl-1H-pyrazol-1-yl}-methyl)phenyl](4-hydroxypiperidin-1-yl)methanone] | 4
Cc1cc(/C(F)=C/c2ccc(C(C)(C)C(F)(F)F)cc2)nn1Cc1cccc(C(=O)N2CCC(O)CC2)c1 [Example 34, {3-[(3-{(Z)-1-Fluoro-2-[4-(1,1,1-trifluoro-2-methylpropan-2-yl)phenyl]vinyl}-5-methyl-1H-pyrazol-1-yl)methyl]phenyl}(4-hydroxypiperidin-1-yl)methanone] | 5
Cc1cc(/C(F)=C/c2ccc(C3(C(F)(F)F)CC3)cc2)nn1Cc1cccc(C(=O)N2CCC(O)CC2)c1 [Example 35, [3-({3-[(Z)-1-Fluoro-2-{4-[1-(trifluoromethyl)cyclopropyl]phenyl}vinyl]-5-methyl-1H-pyrazol-1-yl}methyl)phenyl](4-hydroxypiperidin-1-yl)methanone] | 5
Cc1cc(/C(F)=C/c2ccc(C(F)(F)F)cc2)nn1Cc1cccc(C(=O)N2CCC(O)CC2)c1 [Example 36, {3-[(3-{(Z)-1-Fluoro-2-[4-(trifluoromethyl)phenyl]vinyl}-5-methyl-1H-pyrazol-1-yl)methyl]-phenyl}(4-hydroxypiperidin-1-yl)methanone] | 4
Cc1cc(/C(F)=C/c2ccc(OC(F)(F)F)cc2)nn1Cc1cccc(C(=O)N2CCN(C3CC3)CC2)c1 [Example 37, (4-Cyclopropylpiperazin-1-yl) {3-[(3-{(Z)-1-fluoro-2-[4-(trifluoromethoxy)phenyl]vinyl}-5-methyl-1H-pyrazol-1-yl)methyl]phenyl}methanone] | 3
Cc1cc(/C(F)=C/c2ccc(SC(F)(F)F)cc2)nn1Cc1cccc(C(=O)N2CCN(C3CC3)CC2)c1 [Example 38, (4-Cyclopropylpiperazin-1-yl)[3-({3-[(Z)-1-fluoro-2-{4-[(trifluoromethyl)sulphanyl]phenyl}vinyl]-5-methyl-1H-pyrazol-1-yl}methyl)phenyl]methanone] | 4

Continued, values first:

IC50 [nM] | SMILES
2 | Cc1ccc(Cn2nc(/C(F)=C/c3ccc(N4CC(C)OC(C)C4)nc3)cc2C)cc1 (stereo not shown) [Example 4, 4-(5-{(Z)-2-Fluoro-2-[5-methyl-1-(4-methylbenzyl)-1H-pyrazol-3-yl]vinyl}pyridin-2-yl)-2,6-dimethylmorpholine]
0.4 | Cc1cc(/C(F)=C/c2ccc(OC(F)(F)F)cc2)nn1Cc1cccc(N2CCC(C#N)CC2)c1 [Example 9, 1-{3-[(3-{(Z)-1-Fluoro-2-[4-(trifluoromethoxy)phenyl]vinyl}-5-methyl-1H-pyrazol-1-yl)-methyl]phenyl}piperidine-4-carbonitrile]
0.4 | Cc1cc(/C(F)=C/c2ccc(C(C)(C)C(F)(F)F)cc2)nn1Cc1cccc(N2CCC(C#N)CC2)c1 [Example 10, 1-{3-[(3-{(Z)-1-Fluoro-2-[4-(1,1,1-trifluoro-2-methylpropan-2-yl)phenyl]vinyl}-5-methyl-1H-pyrazol-1-yl)methyl]phenyl}piperidine-4-carbonitrite]
0.2 | Cc1cc(/C(F)=C/c2ccc(C3(C(F)(F)F)CC3)cc2)nn1Cc1cccc(N2CCC(C#N)CC2)c1 [Example 11, 1-[3-({3-[(Z)-1-Fluoro-2-{4-[1-(trifluoromethyl)cyclopropyl]phenyl}vinyl]-5-methyl-1H-pyrazol-1-yl}methyl)phenyl]piperidine-4-carbonitrile]
0.3 | Cc1cc(/C(F)=C/c2ccc(OC(F)(F)F)cc2)nn1Cc1cccc(N2CCC(O)CC2)c1 [Example 12, 1-{3-[(3-{(Z)-1-Fluoro-2-[4-(trifluoromethoxy)phenyl]vinyl}-5-methyl-1H-pyrazol-1-yl)methyl]phenyl}piperidin-4-ol]
0.5 | Cc1cc(/C(F)=C/c2ccc(C(C)(C)C(F)(F)F)cc2)nn1Cc1cccc(N2CCC(O)CC2)c1 [Example 13, 1-{3-[(3-{(Z)-1-Fluoro-2-[4-(1,1,1-trifluoro-2-methylpropan-2-yl)phenyl]vinyl}-5-methyl-1H-pyrazol-1-yl)methyl]phenyl}piperidin-4-ol]
0.2 | Cc1cc(/C(F)=C/c2ccc(C3(C(F)(F)F)CC3)cc2)nn1Cc1cccc(N2CCC(O)CC2)c1 [Example 14, 1-[3-({3-[(Z)-1-Fluoro-2-{4-[1-(trifluoromethyl)cyclopropyl]phenyl}vinyl]-5-methyl-1H-pyrazol-1-yl}methyl)phenyl]piperidin-4-ol]
0.5 | Cc1cc(/C(F)=C/c2ccc(C(C)(C)C(F)(F)F)cc2)nn1Cc1cccc(N2CC(O)C2)c1 [Example 16, 1-{3-[(3-{(Z)-1-Fluoro-2-[4-(1,1,1-trifluoro-2-methylpropan-2-yl)phenyl]vinyl}-5-methyl-1H-pyrazol-1-yl)methyl]phenyl}azetidin-3-ol]
1 | Cc1cc(/C(F)=C/c2ccc(C3(C(F)(F)F)CC3)cc2)nn1Cc1cccc(N2CC(O)C2)c1 [Example 17, 1-[3-({3-[(Z)-1-Fluoro-2-{4-[1-(trifluoromethyl)cyclopropyl]phenyl}vinyl]-5-methyl-1H-pyrazol-1-yl}methyl)phenyl]azetidin-3-ol]
1.5 | Cc1cc(/C(F)=C/c2ccc(OC(F)(F)F)cc2)nn1Cc1cccc(C(=O)N2CCCC2)c1 [Example 26, {3-[(3-{(Z)-1-Fluoro-2-[4-(trifluoromethoxy)phenyl]vinyl}-5-methyl-1H-pyrazol-1-yl)-methyl]phenyl}(pyrrolidin-1-yl)methanone]

— patent US20130150325A1, “3-(Fluorovinyl)pyrazoles and their use” (BAYER INTELLECTUAL PROPERTY GMBH, priority 2011, published 2013)
